Data from patent publication US10087142B2, “Azetidine derivatives useful as modulators of cortical cathecolaminergic neurotransmission” (Integrative Research Laboratories Sweden AB, priority 2015, dated 2018).

Columns and labels:
[1] = system: DOPAC; assay: Neurochemistry: tissue levels of DOPAC in brain regions; format: in vivo, rat; conditions: 33 μmol/kg s.c., rats, 65 min before sacrifice, n = 5; for DOPAC frontal cortex ± SEM: frontal cortex tissue; for DOPAC striatum ± SEM: striatum tissue
Excerpt: The change in turnover of dopamine in the terminal areas of the ascending dopaminergic projections of the mammalian brain can be illustrated by measuring of changes in biochemical indices in the brain e.g. changes in concentrations of dopamine metabolites such as 3,4-dihydroxyphenyl-acetic acid (DOPAC) in the striatum and frontal cortex.
The measurement of the tissue content of DOPAC is well established in the field of research since the 1960's. In short, male Sprague-Dawley rats are administered the test compound 60 minutes prior to decapitation. The brain is rapidly taken out and dissected. The striatum is rapidly frozen and subsequently quantitatively analyzed with respect to its content of DOPAC by means of HPLC and electrochemical detection. The number of animals used for each test compound/vehicle is 5/group.
After the behavioural activity sessions, the rats were decapitated and their brains rapidly taken out and put on an ice-cold petri-dish. The brains were dissected into a right and a left part of which the right part was analyzed for neurochemicals with HPLC and the left part was analyzed for gene expression. The limbic forebrain, the striatum, the frontal cortex, the hippocampus and the remaining hemispheral parts of each rat were dissected and frozen. Each brain part was subsequently analyzed with respect to its content of monoamines and their metabolites.
The monoamine transmitter substances (NA (noradrenaline), DA (dopamine), 5-HT (serotonin)) as well as one corresponding acid, (DOPAC (3,4-dihydroxyphenylacetic acid), were quantified in brain tissue homogenates by HPLC separations and electrochemical detection.
The analytical method is based on two chromatographic separations dedicated for amines or acids. Two chromatographic systems share a common auto injector with a 10-port valve and two sample loops for simultaneous injection on the two systems. Both systems are equipped with a reverse phase column (Luna C18 (2), dp 3 μm, 50*2 mm i.d., Phenomenex) and electrochemical detection is accomplished at two potentials on glassy carbon electrodes (MF-1000, Bioanalytical Systems, Inc.). The column effluent is passed via a T-connection to the detection cell or to a waste outlet. This is accomplished by two solenoid valves, which block either the waste or detector outlet. By preventing the chromatographic front from reaching the detector, better detection conditions are achieved. The aqueous mobile phase (0.4 ml/min) for the acid system contains citric acid 14 mM, sodium citrate 10 mM, Methanol 15% (v/v) and EDTA 0.1 mM. Detection potentials relative to Ag/AgCl reference are 0.45 and 0.60V. […] Detection potentials relative to Ag/AgCl reference are 0.45 and 0.65V.

[2] = system: Arc mRNA; assay: m-RNA analysis: Arc mRNA tissue levels in brain regions; format: in vivo, rat; conditions: 33 μmol/kg s.c., rats, 65 min before sacrifice, n = 5; for Arc frontal cortex ± SEM: frontal cortex tissue; for Arc striatum ± SEM: striatum tissue
Protocol: Sesack et al. (Anatom Substr Glut-Dopamine Inter. Annals of NY AcadSci, 2003, 1003; 36-52) discloses that the dopaminergic systems of the brain interact strongly with central glutamate neurotransmission. To investigate potential effects of compounds as disclosed herein on cortical and striatal NMDA type glutamate receptor related synaptic signaling, Arc mRNA induction was assessed upon acute administration. Arc (Arc/Arg3.1-activity regulated cytoskeleton-associated protein/activity-regulated gene 3.1; (Link W et al., Proc Natl Acad Sci, USA, 1995, 92; 5734-8 and Lyford G L et al., Neuron, 1995, 14; 433-45), is an immediate early gene (IEG), induced by synaptic activity, whose expression and localization at synaptic sites is triggered specifically by NMDA receptor activation and strongly related to neural plasticity (Steward and Worley, Neuron, 2001, 30; 227-40, Kawashima et al., PNAS, 2009, 106(1); 316-21 and Bramham et al., Exp Brain Res, 2010, 200; 125-40).
[…] were dissected into […] different areas: Limbic system (containing nucleus accumbens, most parts of the olfactory tubercle, ventral pallidum), striatum, frontal cortex, hippocampus and the remaining cortex.
Total RNA was prepared by the guanidin isothiocyanate method (Chomczynski P and Sacchi N, Anal Biochem, 1987, 162(1); 156-9). RNA pellets were solved in RNAse-free water and stored at −80° C. The sample concentration was determined spectrophotometrically by a NanoDrop ND1000 (Saveen Werner). A quality indicator number and an integrity number of r-RNA were measured with an Experion (Bio-rad).
A two-step reversed transcription was performed by using a SuperScript III kit (Invitrogen). 1 μg of total RNA was reverse transcribed with 5 μl 2×RT Reaction Mix, 1 μl RT Enzyme Mix, in a total volume adjusted to 10 μl with DEPC-treated water. 1 U of E. coli RNase H was added. c-DNA was diluted 40 times and stored at −20° C.
Three sequences (one gene of interest and two reference genes) were amplified together in a triplex PCR-reaction. For real-time PCR measurements: 5 μl of c-DNA reaction was amplified in a 20 μl reaction mixture containing 10 μl PerfeCta Multiplex qPCR Supermix (Quanta, VWR), 3.5 μl RNAse-free water, 0.15 μM of each primer and 0.1 μM of each probe. Real-time PCR was measured on CFX96 (Bio-rad) using the following settings for all genes: 3 min pre-incubation at 95° C. followed by 40 cycles of denaturation at 95° C. for 15 s, annealing and elongation at 60° C. for 1 minute.
Reference genes are HPRT and cyclophilin.
The primer and probe sequences are as follows for measuring of arc:
Correct PCR products are confirmed by agarose gel electrophoresis (2%) PCR products are purified with PCR purification kit from Qiagen (Valencia, Calif., USA). All genes are sequenced at MWG, Germany. […]

Cl.Fc1cccc(C(F)C2CNC2)c1F (single isomer, unassigned; (-)) [Example 1, (−)-3-[(2,3-Difluorophenyl)(Fluoro)Methyl]Azetidine Hydrochloric Acid Salt]
DOPAC frontal cortex ± SEM [1]: 188 ± 20% of control means
DOPAC striatum ± SEM [1]: 100 ± 8% of control means
Arc frontal cortex ± SEM [2]: 169 ± 8% of control means
Arc striatum ± SEM [2]: 133 ± 9% of control means

Fc1cc(F)cc(C(F)C2CNC2)c1.O=C(O)/C=C/C(=O)O (single isomer, unassigned; (-)) [Example 3, (−)-3-[(3,5-Difluorophenyl)(Fluoro)Methyl]Azetidine Fumarate Salt]
DOPAC frontal cortex ± SEM [1]: 161 ± 6% of control means
DOPAC striatum ± SEM [1]: 83 ± 2% of control means
Arc frontal cortex ± SEM [2]: 137 ± 6% of control means
Arc striatum ± SEM [2]: 90 ± 7% of control means
